What is called inhibition is the relative decrease from the control value, in per cent. The IC50 is the concentration that inhibits the measured activity by half. Read a low IC50 as higher potency. A word on the melting point: it is the temperature, or range, at which the solid turns liquid.

The target of one data set is CyP A (Homo sapiens, UniProt P62937). The data set is described as follows: biochemical. The following applies: for inhibition at 10 µM: read-out: % Inhibition at 10 μM. How it is done: A number of substrates for rotamase are known in the art or can be derived from those known. Typically, the substrate contacts a sample containing a protein with rotamase activity and the conversion of the substrate is detected after a period of time. The method for detecting conversion of the substrate will vary with the particular substrate chosen.
Chain of CyP A (P62937 whole entry): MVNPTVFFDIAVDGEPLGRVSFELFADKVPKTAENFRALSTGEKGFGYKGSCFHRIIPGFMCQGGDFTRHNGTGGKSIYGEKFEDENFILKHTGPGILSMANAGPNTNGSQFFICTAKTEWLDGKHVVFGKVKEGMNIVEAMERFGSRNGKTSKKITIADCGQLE
The following were added to a plastic cuvette: […] of ice cold assay buffer (25 mM HEPES, pH 7.8, 100 mM NaCl), 10 μL of CyP A (2.5 μM in 10 mM Tris-Cl pH 7.5, 100 mM NaCl, 1 mM dithiothreitol), 25 μL of chymotrypsin (50 mg/ml in 1 mM HCl), and 10 μL of test compound, at various concentrations, in dimethyl sulfoxide. The reaction was initiated by the addition of 5 μL of substrate (succinyl-Ala-Phe-Pro-Phe-para-nitroanilide, 5 mg/mL in 470 mM LiCl in trifluoroethanol). The absorbance at 390 nm versus time was monitored for 90 seconds using a spectrophotometer.
While CyP A is used in these examples, other CyP proteins can be substituted.

In another data set the test system is ventral horn motoneurons. In words: Neuroprotection assay, THA-treated organotypic spinal cord slice cultures. In kind it is cell-based. Conditions: THA 200 μM + compound 10 μM, rat spinal cord slice cultures, FIGS. 1-6. The protocol: For each of FIGS. 1-6, the bar graphs represent the number of viable neurons after a specified treatment regimen employed in a neuroprotective activity assay. The cells of the experiments were treated with a control solution, a neurotoxic solution, and neurotoxic+experimental compound solution. The statistical significance, p, is calculated using the standard 2 tailed Student's t test.
Protection of cells from calcium-related physiological stress can be assessed in a neuroprotection assay. Organotypic slice cultures of rat spinal cord tissue display a protracted loss of ventral horn motoneurons when exposed to the glutamate uptake inhibitor THA. […] Each experiment consisted of two 6-well plates with 5 slices from 4 different animals per well. Media changes were performed every 3 to 4 days. […] The control was an untreated sample with 0.1% DMSO as vehicle. The THA control was a THA treated sample with 0. 1% DSMO as vehicle. Two wells were used per condition. One media change with new THA and compounds was performed. The experiment was stopped 6 to 8 days following drug treatment (13-15 total days in vitro, DIV) as dictated by visual assessment of lesion, by fixation with 4% paraformaldehyde/0.1 M phosphate buffer for 30 minutes. Slices were permeabilized with 100% cold methanol for 10 minutes. Slices were transferred to staining wells. The slices were blocked with 10% horse serum/TBS. Primary antibody incubation was overnight at 4° C. with SMI-32 antibody 1:5000 in 2% horse serum/TBS. SMI-32 is specific towards the unphosphorylated H neurofilament subunit, and was here utilized as a marker for ventral horn motoneurons. A Vectastain ABC Elite Kit with rat absorbed anti-mouse secondary antibody was used with DAB to stain the slices. The slices were mounted under DPX mounting solution for microscopy.
Quantification of surviving neurons was performed on a Zeiss Axiovert microscope. Neuronal survival was determined by observing an intact neuronal cell body with processes located ventrally of the central canal in each hemisphere. This correlated to laminae VII, VIII and IX. Each hemisphere was counted individually. The statistics were performed with StatView software on a minimum of three different experiments per condition and significance was determined as compared to THA control. The percent of protection was determined from the average number of living neurons by the following equation: (drug treatment condition —THA control)/(Untreated control-THA control).

In a further data set the test system is neuronal cells. In words: Neurotrophic or neuroprotectant activity (assay not specified). It counts as cell-based. From the text: In general, activity in the nervous system for a particular compound can be identified by assaying for the ability to promote neurite outgrowth, protect neurons from damage by chemical treatments, promote the growth of neurons or neuronal cells, recover lost or damaged motor, functional or cognitive ability associated with nervous tissue or organs of the nervous system, or regenerate neurons. These activities can be useful in treating, diagnosing, or prognosing a number of human disease conditions, including, but not limited to, Parkinson's disease, Alzheimer's disease, amyotrophic lateral sclerosis (ALS), traumatic injury, spinal cord injury, multiple sclerosis, diabetic neuropathy, neuropathy associated with medical treatments such as chemotherapy, ischemia or ischemia-induced injury, stroke, oxygen deprivation, retinopathies, peripheral neuropathies, and neuropathies associated with viral infection.
Preferred methods for detecting neuronal activity include a neuroprotective assay, in which a compound is tested for the ability to protect against treatment causing glutamate neurotoxicity. Sensory neuronal cultures (DRG) can also be assayed for neurite outgrowth, an assay for neurotrophic activity. […] Immunohistochemistry can aid in the visualization and quantitation of neurites as compared to control.

For `NC(=O)c1ccccc1NC(=O)Nc1cc(NC(=O)Nc2ccccc2C(N)=O)c(Br)cc1Br` [Compound 1], on CyP A, the inhibition at 10 µM came to 100%. In the case of `O=C(Nc1ccc(I)cc1)Nc1cc(NC(=O)Nc2ccc(I)cc2)c(Br)cc1Br` [Compound 3], on CyP A, the IC50 stood at 600 nM. Also, the “neuroprotective activity (number of viable neurons)” value (“neuroprotective activity” for short) with ventral horn motoneurons is “displays neuroprotective activity”. On to `Cc1ccc(NC(=O)N(Cc2ccccc2)Cc2ccccc2)cc1NC(=O)N(Cc1ccccc1)Cc1ccccc1` [Compound 4], for which, on CyP A, the midpoint of inhibition, the IC50, lay at 800 nM and the inhibition at 10 µM amounted to 100%. The “neuroprotective activity” value in the data set on ventral horn motoneurons is listed as “displays neuroprotective activity”. Consider `CSc1ccc(Cl)cc1C(=O)Nc1cccc(NC(=O)c2cc(Cl)ccc2SC)c1` [Compound 6], for which the inhibition at 10 µM on CyP A is 100%. For the same compound, the “neurotrophic or neuroprotectant activity” value in the data set with neuronal cells is listed as “possess neurotrophic or neuroprotectant activity”.

In the case of `O=C(Nc1ccccc1)Nc1cc(NC(=O)Nc2ccccc2)cc(C(F)(F)F)c1` [Compound 7], on CyP A, the inhibition at 10 µM came out at 100%. In addition, the “neurotrophic or neuroprotectant activity” value in the data set on neuronal cells was “possess neurotrophic or neuroprotectant activity”. On to `O=C(Nc1cccc2ccccc12)NC1CCCC(NC(=O)Nc2cccc3ccccc23)C1` (centres unmarked) [Compound 10], for which the IC50 against CyP A was 4500 nM.

For `O=C(Nc1cccc(NC(=O)Nc2ccon2)c1)Nc1ccon1` [Compound 11], at CyP A, half-maximal inhibition (IC50) required 4000 nM and the inhibition at 10 µM was determined as 93%. Further, in the data set on ventral horn motoneurons, the “neuroprotective activity” value is “displays neuroprotective activity”. The corresponding values for `COc1cccc(NC(=O)NC2CCCC(NC(=O)Nc3cccc(OC)c3)C2)c1` (centres unmarked) [Compound 12] are 9500 nM, 47.7% and “displays neuroprotective activity”. In the case of `O=S(=O)(Nc1cccc(OCCc2cccc3ccccc23)c1)c1cccc2ccccc12` [Compound 13], the melting point fell in the range of 165 to 167 °C. Moreover, on CyP A, it took 830 nM to reach half-maximal inhibition (IC50) and the inhibition at 10 µM was found to be 100%.

`O=C(Nc1cc(Cl)cc(Cl)c1)c1cccc(C(=O)Nc2cc(Cl)cc(Cl)c2)c1` [Compound 14]: the inhibition at 10 µM at CyP A is 100%.

As to `O=C(NCc1cccc2ccccc12)c1cccc(NC(=O)c2cc(Cl)cc(Cl)c2)c1` [Compound 16, {3-[(3,5-dichlorophenyl)carbonylamino]phenyl}-N-(naphthylmethyl) formamide], the melting point fell in the range of 205 to 208 °C. The inhibition at 10 µM on CyP A amounted to 100%. As to `O=C(Nc1cccc(S(=O)(=O)NC(c2ccccc2)c2ccccc2)c1)C(c1ccccc1)c1ccccc1` [Compound 17], on CyP A, the IC50 was 650 nM and the inhibition at 10 µM was determined as 99%.

For `O=C(Nc1cccc(S(=O)(=O)NC(c2ccccc2)c2ccccc2)c1)c1cc(Cl)cc(Cl)c1` [Compound 18], on CyP A, the IC50 was 520 nM and the inhibition at 10 µM was determined as 100%.

For `CN(C)c1ccc(NC(=O)Nc2cc(NC(=O)Nc3ccc(N(C)C)cc3)c(Br)cc2Br)cc1` [Compound 19], on CyP A, the IC50 turned out to be 2900 nM and the inhibition at 10 µM came to 98%.

On to `O=C(NCc1cccc2ccccc12)Nc1cccc(NC(=O)NCc2cccc3ccccc23)c1` [Compound 21], for which the inhibition at 10 µM on CyP A came out at 100%. Still for that read-out and setting: the value for `O=C(Nc1cccc(NC(=O)N(c2ccccc2)c2ccccc2)c1)N(c1ccccc1)c1ccccc1` [Compound 22] was 100%.

`O=C(Nc1cc(Cl)cc(Cl)c1)NC1CCCC(NC(=O)Nc2cc(Cl)cc(Cl)c2)C1` (centres unmarked) [Compound 23]: the inhibition at 10 µM at CyP A is 100%. The same measure, in the same setting: under `O=C(Nc1ccc(Br)cc1Br)NC1CCCC(NC(=O)Nc2ccc(Br)cc2Br)C1` (centres unmarked) [Compound 24] stands 100%; under `O=C(NCC1CCCC(CNC(=O)Nc2cc(Cl)cc(Cl)c2)C1)Nc1cc(Cl)cc(Cl)c1` (centres unmarked) [Compound 25], 100%. On the same count and under the same terms, under `O=C(NCC1CCCC(CNC(=O)Nc2cc(Br)cc(Br)c2)C1)Nc1cc(Br)cc(Br)c1` (centres unmarked) [Compound 26] stands 100%; under `Cc1ccc(NC(=O)Nc2cccc(NC(=O)Nc3ccc(C)cc3C)c2)c(C)c1` [Compound 27], 100%; under `O=C(Nc1cc(Cl)cc(Cl)c1)Nc1cccc(NC(=O)Nc2cc(Cl)cc(Cl)c2)c1` [Compound 28], 100%. On the same count and under the same terms, the value for `O=C(Nc1cccc(NC(=O)Nc2ccc(Br)cc2Br)c1)Nc1ccc(Br)cc1Br` [Compound 29] was 89%.

Turning to `O=C(NCc1cccc(CNC(=O)Nc2cc(Cl)cc(Cl)c2)c1)Nc1cc(Cl)cc(Cl)c1` [Compound 30], the inhibition at 10 µM on CyP A turned out to be 88%.

Take `O=C(NCc1cccc(CNC(=O)Nc2ccc(Br)cc2Br)c1)Nc1ccc(Br)cc1Br` [Compound 31]: the inhibition at 10 µM on CyP A amounted to 100%.

With cyclosporin A [CsA, reference compound], the “neuroprotective activity” value in the data set on ventral horn motoneurons is given as “maintains neuronal viability”.

The values above are taken from patent US6593362B2, “Non-peptidic cyclophilin binding compounds and their use” (Guilford Pharmaceuticals Inc., priority 2001, dated 2003).
